Data: patent publication US10238616B2, “Immunomodulator” (WAKUNAGA PHARMACEUTICAL CO., LTD., priority 2014, dated 2019)

Experiments:
IgA-producing B cells [1] = assay: Promoting effect of IgA production (in vivo) <3>: IgA-producing B cells in the peritoneal cavity; design: species or system mouse; settings: female C57BL/6N mice, oral administration for five days, compared with water administration group
Experimental: (§1) Animals for the biological activity evaluation were reared as follows. Female C57BL/6N mice for tests were purchased from CLEA Japan, Inc. After the purchase, the mice were acclimated for a week, and then used as the animals for the evaluation test.
The animals for the evaluation test of (3) above were orally administered with the sample prepared in (1) (b) above for five days. The animals were sacrificed and a laparotomy was performed without breaking the peritoneum. Then, 3 mL of 5% FBS-containing Hank's Balanced Salt Solution was placed in a 5 mL syringe and injected into the peritoneal cavity using a 27G needle. Then, the peritoneum was pressed with fingers to spread the injected solution evenly throughout the peritoneal cavity, followed by collecting the intraperitoneal solution using a 18G needle. The intraperitoneal solution thus collected was centrifuged at 1,500 rpm for five minutes. The resulting supernatant was removed and peritoneal cells were collected. […] Upon completion of treatment, 1×10^4 lymphocytes were analyzed by using a flow cytometer to count the number of IgA-producing B cells which reacted to the anti-mouse CD45 antibody (B220) and the anti-mouse immunoglobulin A antibody.

IgA production [2] = assay: Promoting effect of IgA production (in vitro) <2>; assay type: cell-based, mouse; settings: spleen lymphocytes of female C57BL/6N mice, 0.03, 0.1 and 0.3 mM, three days at 37° C.
Experimental: (§2) Cells for the biological activity evaluation were prepared as follows. Female C57BL/6N mice for tests were purchased from CLEA Japan, Inc. After the purchase, the mice were acclimated for a week, and then sacrificed and the spleens were taken out. The excised spleens were crushed and passed through a mesh to collect lymphocytes, which were used as the cells for the evaluation test.
(§3) Mouse IgA Quantitation Kit manufactured by Bethyl laboratories, Inc was purchased and the amount of IgA produced was measured. The wash solution or culture supernatant to be measured was placed in a 96-well plate coated with an anti-IgA antibody. After adding various reaction reagents, the absorbance was measured by using a plate reader.
The lymphocytes obtained from the cells for the evaluation test of (2) above were prepared at 5×10^6 cells/mL with a 10% serum-containing medium and inoculated into a 48-well plate at 200 μL each.
To the cells, chemically synthesized cis-S-1-propenycysteine and trans-S-1-propenycysteine, and S-1-propenycysteine (a cis/trans mixture) prepared in Production Example 2 were added at concentrations of 0.03, 0.1, and 0.3 mM, followed by culturing at 37° C. for three days. Subsequently, the amount of IgA produced in the culture supernatants was measured by ELISA.

IL-6 production [3] = assay: Inhibitory effect on IL-6 production under LPS stimulation (in vitro) <2>; assay type: cell-based, mouse; settings: spleen lymphocytes, 3 μg/mL Salmonella-derived LPS, 0.3 mM, 24 hours at 37° C.
Experimental: as §2
(§4) Mouse IL-6 ELISA Ready-SET-Go! Kit manufactured by eBioscience was purchased and the amount of IL-6 produced was measured. The culture supernatant to be measured was placed in a 96-well plate coated with an anti-IL-6 antibody. After adding various reaction reagents, the absorbance was measured by using a plate reader.
The lymphocytes obtained from the cells for the evaluation test of (2) above were prepared at 5×10^6 cells/mL with a 10% serum-containing medium and inoculated into a 48-well plate at 200 μL each. To these cells, chemically synthesized cis-S-1-propenycysteine and trans-S-1-propenycysteine, SAC, and S-1-propenycysteine (a cis/trans mixture) prepared in Production Example 2 were added at a concentration of 0.3 mM in the presence of 3 μg/mL Salmonella-derived lipopolysaccharides (LPS), followed by culturing at 37° C. for 24 hours. Upon completion of culture, the supernatants were collected and the amount of IL-6 was measured by ELISA.

IL-6 production [4] = assay: Inhibitory effect on IL-6 production under LPS stimulation (in vitro) <1>; assay type: cell-based, mouse; settings: spleen lymphocytes, 1 μg/mL Escherichia coli 055-derived LPS, 0.1 mM
Experimental: as §2, §4
(§5) The lymphocytes obtained from the cells for the evaluation test of (2) above were prepared at 1×10^6 cells/mL with a 10% serum-containing medium and inoculated into a 24-well plate at 1 mL each. Subsequently, Escherichia coli 055-derived lipopolysaccharides (LPS) were added at 1 μg/mL, and then the samples prepared in (1) (b) above were added at 0.1 mM, followed by culturing at 37° C. for 24 hours or three days. Upon completion of culture, the supernatants were collected and the amounts of IL-6 and IgA were measured by ELISA.

IgA production [5] = assay: Promoting effect of IgA production (in vitro) <1>; assay type: cell-based, mouse; settings: spleen lymphocytes of female C57BL/6N mice, 0.1 mM, three days at 37° C., compared with other sulfur-containing amino acid compounds
Experimental: as §2, §3
The lymphocytes obtained from the cells for the evaluation test of (2) above were prepared at 1×10^6 cells/mL with a 10% serum-containing medium and inoculated into a 24-well plate at 1 mL each, or prepared at 1×10^6 cells/200 μL and inoculated into a 48-well plate at 200 μL each. Subsequently, of the samples prepared in (1) above, those prepared in (1) (a) above were appropriately diluted and added to the 24-well plate so that the final concentration was 4 mg/mL, and those prepared in (1) (b) was added to the 48-well plate at 0.1 mM. After culturing for three days at 37° C., the supernatants were collected and the amount of IgA was measured by ELISA.

IgA production [6] = assay: Promoting effect on IgA production under LPS stimulation (in vitro) <1>; assay type: cell-based, mouse; settings: spleen lymphocytes, 1 μg/mL Escherichia coli 055-derived LPS, 0.1 mM, compared with no stimulation
Experimental: as §2, §3, §5

IgA-producing B cells [7] = assay: Promoting effect of IgA production (in vivo) <2>: IgA-producing B cells in Peyer's patches; design: species or system mouse; settings: female C57BL/6N mice, oral administration for five days, compared with water administration group
Text: as §1
The animals for the evaluation test of (3) above were orally administered with the sample prepared in (1) (b) above for five days, and then sacrificed. The small intestines were removed, from which Peyer's patches were collected. The Peyer's patches were ground, to which Collagenase D was added to give a final concentration of 1 mg/mL and DNAase I was added to give a final concentration of 20 μg/mL. Treatment was continued for 30 minutes while shaking at 37° C., followed by centrifugation at 1,500 rpm. The resulting supernatant was removed. Then, 2 mL of 5% FBS-containing Hank's Balanced Salt Solution containing 5 mM EDTA was added, followed by treatment for five minutes while shaking at 37° C. Upon completion of treatment, the resultant was passed through a 40 μm mesh to remove tissue pieces and collect lymphocytes. […] Upon completion of treatment, 1×10^4 lymphocytes were analyzed by using a flow cytometer to count the number of IgA-producing B cells which reacted to the anti-mouse CD45 antibody (B220) and the anti-mouse immunoglobulin A antibody.

IgA = assay: Promoting effect of IgA production (in vivo) <1>: IgA in intestinal lavage fluids; design: species or system mouse; settings: female C57BL/6N mice, oral administration for five days, compared with water administration group
Experimental: as §1, §3
The animals for the evaluation test of (3) above were orally administered with the sample prepared in (1) (b) above for five days, and then sacrificed and the small intestines were removed. Phosphate buffer (5 mL) was passed through the small intestines and the contents of the small intestines and the lavage fluids collected. The collected products were combined and centrifuged, and the amount of IgA in the resulting supernatant was quantified by ELISA.

| SMILES | number of IgA-producing B cells in the peritoneal cavity (flow cytometer), FIG. 5 (IgA-producing B cells [1]) | amount of IgA produced in culture supernatants (ELISA), FIG. 8 (IgA production [2]) | IL-6 secretion induced by LPS stimulation (ELISA), FIG. 9 (IL-6 production [3]) | amount of IL-6 secretion induced by LPS stimulation (ELISA), FIG. 7 (IL-6 production [4]) | amount of IgA in culture supernatant (ELISA), FIG. 2 (IgA production [5]) | amount of IgA under LPS stimulation (ELISA), FIG. 6 (IgA production [6]) | number of IgA-producing B cells in Peyer's patches (flow cytometer), FIG. 4 (IgA-producing B cells [7]) | amount of IgA in the intestinal lavage fluids (ELISA), FIG. 3 (IgA) |
| --- | --- | --- | --- | --- | --- | --- | --- | --- |
| CC=CSCC(N)C(=O)O (centres unmarked) [S-1-propenycysteine, S-1-propenylcysteine] | increased | significantly enhanced IgA production | significantly inhibited IL-6 secretion | reduced | promoted IgA production more strongly than other sulfur-containing amino acid compounds | higher promoting effect on IgA production than under no stimulation | increased | increased |
| C/C=C\SC[C@H](N)C(=O)O [cis-S-1-propenycysteine, cis-S-1-Propenylcysteine] |  | virtually did not affect IgA production |  |  |  |  |  |  |
| C/C=C/SC[C@H](N)C(=O)O [trans isomer, trans-S-1-Propenylcysteine] |  | significantly enhanced IgA production | significantly inhibited IL-6 secretion |  |  |  |  |  |
